Series [1] deals with recombinant NL4-3 virus (nef section replaced with Renilla luciferase gene) in MT-2 cells. As to the kind of experiment: HIV cell culture assay (antiviral activity, luciferase readout). Format: cell-based. Particulars: MT-2 cells infected for 4-5 days with recombinant NL4-3 luciferase virus. The method in brief: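 Serially diluted compounds were present throughout a 4-5 day infection of MT-2 cells by recombinant NL4-3 whose nef region partly encodes Renilla luciferase. Antiviral activity was taken from live-cell luciferase signal, with the 50% effective concentration fitted by the exponential median effect equation.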

A short description of series [2]: Compound cytotoxicity, XTT-based colorimetric assay. The class given is cell-based. Particulars: human, uninfected MT2 cells, Table 1a, day 4, XTT. In a few lines: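 XTT colorimetric read-out on day 4 gave CC50 values, using MT2 cells left uninfected but otherwise handled as in the antiviral assay.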

Consider `COc1c(F)cc2c(=O)n(-c3ccc(Cl)c4c(NS(C)(=O)=O)nn(C)c34)c([C@H](Cc3cc(F)cc(F)c3)NC(=O)Cn3ccc(C4CC4)n3)nc2c1F` (single isomer, unassigned) [Example 115], for which the EC50 (usually the midpoint of the concentration-response curve) in series [1] (Table 1a) turned out to be 68.4 nM. Also, the CC50 (as a rule, the concentration at which the toxic effect on the cells reaches its halfway point) at 4 days in series [2] is > 1000 nM.

Regarding `Cn1ccc2nc(C(Cc3cc(F)cc(F)c3)NC(=O)Cn3nc(C(F)F)c4c3C(F)(F)[C@@H]3C[C@H]43)c(-c3ccc(Cl)c4c(NS(C)(=O)=O)nn(C)c34)cc21` (single isomer, unassigned) [Example 117], the half-maximal effective concentration (EC50) in series [1] (Renilla, NL43, Table 1a) is 0.243 nM. In series [2], the CC50 at 4 days is > 10000 nM.

Take `Cn1ccc2nc([C@H](Cc3cc(F)cc(F)c3)NC(=O)Cn3nc(C(F)F)c4c3C(F)(F)[C@@H]3C[C@H]43)c(-c3ccc(Cl)c4c(NS(C)(=O)=O)nn(C)c34)cc21` (single isomer, unassigned) [Example 119]: the EC50 in series [1] (Renilla, NL43, Table 1a) was 0.0924 nM. Moreover, in series [2], the CC50 at 4 days is > 10000 nM.

With `Cn1ccc2nc([C@@H](Cc3cc(F)cc(F)c3)NC(=O)Cn3nc(C(F)F)c4c3C(F)(F)[C@@H]3C[C@H]43)c(-c3ccc(Cl)c4c(NS(C)(=O)=O)nn(C)c34)cc21` (single isomer, unassigned) [Example 121], the concentration for a half-maximal effect (EC50) in series [1] (Renilla, NL43, Table 1a) amounted to 171 nM. The CC50 at 4 days in series [2] was > 10000 nM.

Consider `Cc1cccc2nc([C@H](Cc3cc(F)cc(F)c3)NC(=O)Cn3nc(C(F)F)c4c3C(F)(F)[C@@H]3C[C@H]43)n(-c3ccc(Cl)c4c(NS(C)(=O)=O)nn(C)c34)c(=O)c12` (single isomer, unassigned) [Example 125], for which, in series [1] (Table 1a), the EC50 came to 63.9 nM. Moreover, the 50% cytotoxic concentration (CC50) at 4 days in series [2] is > 1000 nM.

With `Cn1nc(NS(C)(=O)=O)c2c(Cl)ccc(-n3c([C@H](Cc4cc(F)cc(F)c4)NC(=O)Cn4nc(C(F)F)c5c4C(F)(F)[C@@H]4C[C@H]54)nc4cccc(C(F)(F)F)c4c3=O)c21` (single isomer, unassigned) [Example 127], in series [1] (Table 1a), the EC50 worked out at 379 nM. For the same molecule, the CC50 at 4 days in series [2] was > 1000 nM.

In the case of `Cn1nc(NS(C)(=O)=O)c2c(Cl)ccc(-n3c([C@H](Cc4cc(F)cc(F)c4)NC(=O)Cn4nc(C(F)F)c5c4C(F)(F)[C@@H]4C[C@H]54)nc4cc(F)cc(F)c4c3=O)c21` (single isomer, unassigned) [Example 130], the 50% effective concentration (EC50) in series [1] (Renilla, NL43, Table 1a) is 0.15 nM. In addition, the CC50 at 4 days in series [2] was > 1000 nM.

For the molecule `Cn1nc(NS(C)(=O)=O)c2c(Cl)ccc(-n3c([C@H](Cc4cc(F)cc(F)c4)NC(=O)Cn4ccc(C5CC5)n4)nc4cc(F)cc(F)c4c3=O)c21` (single isomer, unassigned) [Example 131], the EC50 in series [1] (Renilla, NL43, Table 1a) was 111 nM. Further, in series [2], the CC50 at 4 days was > 1000 nM.

Turning to `Cc1cccc2nc([C@H](Cc3cc(F)cc(F)c3)NC(=O)Cn3ccc(C4CC4)n3)n(-c3ccc(Cl)c4c(NS(C)(=O)=O)nn(C)c34)c(=O)c12` (single isomer, unassigned) [Example 133], the concentration giving a half-maximal response (EC50) in series [1] (Table 1a) worked out at 127 nM. Moreover, the CC50 at 4 days in series [2] was > 1000 nM.

As to `Cn1nc(NS(C)(=O)=O)c2c(Cl)ccc(-n3c([C@H](Cc4cc(F)cc(F)c4)NC(=O)Cn4ccc(C5CC5)n4)nc4cccc(C(F)(F)F)c4c3=O)c21` (single isomer, unassigned) [Example 136], in series [1] (Renilla, NL43, Table 1a), the EC50 was 38.9 nM. Besides, the CC50 at 4 days in series [2] is > 1000 nM.

As to `Cn1nc(NS(C)(=O)=O)c2c(Cl)ccc(-n3c([C@H](Cc4cc(F)cc(F)c4)NC(=O)Cn4nc(C(F)F)c5c4C(F)(F)[C@@H]4C[C@H]54)nc4cc(C(F)(F)F)ccc4c3=O)c21` (single isomer, unassigned) [Example 137], the EC50 in series [1] (Table 1a) was determined as 9.89 nM. Also, the CC50 at 4 days in series [2] is > 1000 nM.

In the case of `Cn1nc(NS(C)(=O)=O)c2c(Cl)ccc(-n3c([C@H](Cc4cc(F)cc(F)c4)NC(=O)Cn4nc(C(F)F)c5c4C(F)(F)[C@@H]4C[C@H]54)nc4ccc(OC(F)(F)F)cc4c3=O)c21` (single isomer, unassigned) [Example 140], the concentration giving a half-maximal response (EC50) in series [1] (Renilla, NL43, Table 1a) was determined as 0.32 nM. The 50% cytotoxic concentration (CC50) at 4 days in series [2] was > 1000 nM.

Consider `Cn1nc(NS(C)(=O)=O)c2c(Cl)ccc(-n3c([C@H](Cc4cc(F)cc(F)c4)NC(=O)Cn4ccc(C(F)(F)F)n4)nc4cc(C(F)(F)F)ccc4c3=O)c21` (single isomer, unassigned) [Example 141], for which, in series [1] (Table 1a), the EC50 was 217 nM. Besides, in series [2], the cytotoxic concentration (CC50) at 4 days was > 1000 nM.

As to `Cn1nc(NS(C)(=O)=O)c2c(Cl)ccc(-n3c([C@H](Cc4cc(F)cc(F)c4)NC(=O)Cn4ccc(C(F)(F)F)n4)nc4ccc(OC(F)(F)F)cc4c3=O)c21` (single isomer, unassigned) [Example 143], in series [1] (Table 1a), the 50% effective concentration (EC50) turned out to be 84 nM. In addition, in series [2], the CC50 at 4 days was > 1000 nM.

In the case of `Cn1nc(NS(C)(=O)=O)c2c(Cl)ccc(-n3c([C@H](Cc4cc(F)cc(F)c4)NC(=O)Cn4ccc(C5CC5)n4)nc4c(F)ccc(F)c4c3=O)c21` (single isomer, unassigned) [Example 145], in series [1] (Table 1a), the half-maximal effective concentration (EC50) was found to be 30.2 nM. Moreover, in series [2], the 50% cytotoxic concentration (CC50) at 4 days is > 1000 nM.

As for `Cn1nc(NS(C)(=O)=O)c2c(Cl)ccc(-n3c([C@H](Cc4cc(F)cc(F)c4)NC(=O)Cn4nc(C(F)F)c5c4C(F)(F)[C@@H]4C[C@H]54)nc4c(F)ccc(F)c4c3=O)c21` (single isomer, unassigned) [Example 147], the EC50 in series [1] (Table 1a) came to 27.9 nM. The CC50 at 4 days in series [2] is > 1000 nM.

As to `Cn1nc(NS(C)(=O)=O)c2c(Cl)ccc(-n3c([C@H](Cc4cc(F)cc(F)c4)NC(=O)Cn4ccc(C5CC5)n4)nc4ccc(OC(F)(F)F)cc4c3=O)c21` (single isomer, unassigned) [Example 152], the concentration for a half-maximal effect (EC50) in series [1] (Table 1a) was 173 nM. In addition, in series [2], the cytotoxic concentration (CC50) at 4 days is > 1000 nM.

In the case of `Cn1nc(NS(C)(=O)=O)c2c(Cl)ccc(-n3c([C@H](Cc4cc(F)cc(F)c4)NC(=O)Cn4nc(C(F)F)c5c4C(F)(F)[C@@H]4C[C@H]54)nc4ccc(F)c(Cl)c4c3=O)c21` (single isomer, unassigned) [Example 160], the EC50 in series [1] (Table 1a) came to 0.18 nM. Also, the cytotoxic concentration (CC50) at 4 days in series [2] was > 1000 nM.

`COc1ccc2nc([C@H](Cc3cc(F)cc(F)c3)NC(=O)Cn3nc(C(F)F)c4c3C(F)(F)[C@@H]3C[C@H]43)n(-c3ccc(Cl)c4c(NS(C)(=O)=O)nn(C)c34)c(=O)c2c1` (single isomer, unassigned) [Example 173]: the half-maximal effective concentration (EC50) in series [1] (Table 1a) came to 32 nM. Besides, in series [2], the cytotoxic concentration (CC50) at 4 days is > 1000 nM.

Turning to `Cn1nc(NS(C)(=O)=O)c2c(Cl)ccc(-n3c([C@H](Cc4cc(F)cc(F)c4)NC(=O)Cn4nc(C(F)F)c5c4C(F)(F)[C@@H]4C[C@H]54)nc4ccc(Cl)c(F)c4c3=O)c21` (single isomer, unassigned) [Example 176], the concentration giving a half-maximal response (EC50) in series [1] (Table 1a) is 0.19 nM. Further, in series [2], the CC50 at 4 days is > 1000 nM.

Consider `Cn1nc(NS(C)(=O)=O)c2c(Cl)ccc(-n3c([C@H](Cc4cc(F)cc(F)c4)NC(=O)Cn4nc(C(F)F)c5c4C(F)(F)[C@@H]4C[C@H]54)nc4cc(Cl)cc(Cl)c4c3=O)c21` (single isomer, unassigned) [Example 179], for which, in series [1] (Table 1a), the EC50 was 0.077 nM. Further, in series [2], the CC50 at 4 days was > 1000 nM.

In the case of `COc1cc(OC)c2c(=O)n(-c3ccc(Cl)c4c(NS(C)(=O)=O)nn(C)c34)c([C@H](Cc3cc(F)cc(F)c3)NC(=O)Cn3nc(C(F)F)c4c3C(F)(F)[C@@H]3C[C@H]43)nc2c1` (single isomer, unassigned) [Example 181], in series [1] (Table 1a), the 50% effective concentration (EC50) was determined as 23.1 nM. Besides, the half-maximal cytotoxic concentration (CC50) at 4 days in series [2] was > 1000 nM.

With `Cn1nc(NS(C)(=O)=O)c2c(Cl)ccc(-n3c([C@H](Cc4cc(F)cc(F)c4)NC(=O)Cn4ccc(C5CC5)n4)nc4cccc(F)c4c3=O)c21` (single isomer, unassigned) [Example 183], in series [1] (Table 1a), the EC50 amounted to 21.5 nM. The half-maximal cytotoxic concentration (CC50) at 4 days in series [2] is > 1000 nM.
